In assay [1] the target is T1, human muscarinic M1 receptor (Homo sapiens, UniProt P11229).
T1 construct: expressed in transfected cells
T1 sequence (P11229 1-460): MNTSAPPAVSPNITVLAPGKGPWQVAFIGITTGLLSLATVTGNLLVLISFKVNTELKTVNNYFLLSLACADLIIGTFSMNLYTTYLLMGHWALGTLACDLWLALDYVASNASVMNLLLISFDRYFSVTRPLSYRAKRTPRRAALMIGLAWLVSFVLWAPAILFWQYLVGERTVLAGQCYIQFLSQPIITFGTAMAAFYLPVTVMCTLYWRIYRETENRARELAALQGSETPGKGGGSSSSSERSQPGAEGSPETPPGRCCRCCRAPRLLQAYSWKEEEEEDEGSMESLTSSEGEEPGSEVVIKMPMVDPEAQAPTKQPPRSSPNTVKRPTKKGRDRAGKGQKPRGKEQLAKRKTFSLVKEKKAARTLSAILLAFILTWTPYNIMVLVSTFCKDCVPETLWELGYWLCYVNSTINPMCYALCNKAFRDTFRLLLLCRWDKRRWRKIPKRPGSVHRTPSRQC
Description: Alphascreen Surefire phospho-ERK1/2 functional assay, M1. The format is cell-based. Particulars: for M1 % Emax cf. ACh / EC50: CHO cells stably expressing human M1; for M1 % Emax cf. ACh / Emax: Emax relative to ACh; for EC50: phospho-ERK1/2, read-out: pEC50 M1 (converted); for Emax: CHO, read-out: M1 % Emax cf. ACh, CHO cells stably expressing human M1.

Assay [2] has as its target T2, human muscarinic M4 receptor (Homo sapiens, UniProt P08173).
T2 construct: expressed in transfected cells
T2 sequence (P08173 1-479): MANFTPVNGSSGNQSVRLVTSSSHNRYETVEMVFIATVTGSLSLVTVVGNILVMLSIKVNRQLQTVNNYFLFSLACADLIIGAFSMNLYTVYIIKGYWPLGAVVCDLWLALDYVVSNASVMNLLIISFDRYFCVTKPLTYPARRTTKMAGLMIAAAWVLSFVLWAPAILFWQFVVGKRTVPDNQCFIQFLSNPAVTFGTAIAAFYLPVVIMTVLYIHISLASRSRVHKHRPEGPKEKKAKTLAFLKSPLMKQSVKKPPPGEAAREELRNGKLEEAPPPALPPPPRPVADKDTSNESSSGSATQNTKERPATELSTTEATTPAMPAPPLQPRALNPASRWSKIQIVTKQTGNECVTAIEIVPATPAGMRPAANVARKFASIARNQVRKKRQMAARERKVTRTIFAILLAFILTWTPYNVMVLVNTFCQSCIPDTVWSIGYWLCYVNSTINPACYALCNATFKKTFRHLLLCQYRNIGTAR
Description: Alphascreen Surefire phospho-ERK1/2 functional assay, M4. Particulars: for M4 % Emax cf. ACh / EC50: CHO cells stably expressing human M4; for M4 % Emax cf. ACh / Emax: Emax relative to ACh; for EC50: phospho-ERK1/2, read-out: pEC50 M4 (converted); for Emax: CHO, read-out: M4 % Emax cf. ACh, CHO cells stably expressing human M4. Format: cell-based.
Description: (§1) CHO cells stably expressing the human muscarinic M1, M2, M3 or M4 receptor were plated (25K/well) onto 96-well tissue culture plates in MEM-alpha+10% dialysed FBS. Once adhered, cells were serum-starved overnight. Agonist stimulation was performed by the addition of 5 μL agonist to the cells for 5 min (37° C.). Media was removed and 50 μL of lysis buffer added. After 15 min, a 4 μL sample was transferred to 384-well plate and 7 μL of detection mixture added. Plates were incubated for 2 h with gentle agitation in the dark and then read on a PHERAstar plate reader.
(§2) pEC50 and Emax figures were calculated from the resulting data for each receptor subtype.

Assay [3] has as its target T3, human muscarinic M2 receptor (Homo sapiens, UniProt P08172).
T3 sequence (P08172 1-466): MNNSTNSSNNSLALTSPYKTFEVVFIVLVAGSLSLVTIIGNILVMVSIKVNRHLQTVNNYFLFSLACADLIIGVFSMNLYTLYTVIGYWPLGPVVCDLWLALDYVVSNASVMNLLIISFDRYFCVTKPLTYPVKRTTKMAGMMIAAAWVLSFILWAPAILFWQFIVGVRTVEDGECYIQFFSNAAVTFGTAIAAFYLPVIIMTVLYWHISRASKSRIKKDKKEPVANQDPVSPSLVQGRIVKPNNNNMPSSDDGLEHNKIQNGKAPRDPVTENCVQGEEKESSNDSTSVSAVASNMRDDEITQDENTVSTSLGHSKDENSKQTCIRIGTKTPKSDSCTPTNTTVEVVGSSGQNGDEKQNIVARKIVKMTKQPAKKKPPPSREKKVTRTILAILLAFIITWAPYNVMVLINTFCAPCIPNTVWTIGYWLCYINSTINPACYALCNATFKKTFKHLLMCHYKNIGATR
Description: Alphascreen Surefire phospho-ERK1/2 functional assay, M2. To be noted: for EC50: pEC50 M2, CHO cells stably expressing human M2, phospho-ERK1/2; for Emax: CHO, read-out: M2 % Emax cf. ACh, CHO cells stably expressing human M2. (In general: Alpha assays give light when donor and acceptor beads are brought close together.)
Description: as §1, §2

In assay [4] the target is human muscarinic M3 receptor (Homo sapiens, UniProt P20309). The experiment in a line: Alphascreen Surefire phospho-ERK1/2 functional assay, M3. To be noted: for Emax: CHO, read-out: M3 % Emax cf. ACh, CHO cells stably expressing human M3.
Sequence of human muscarinic M3 receptor (P20309 whole entry): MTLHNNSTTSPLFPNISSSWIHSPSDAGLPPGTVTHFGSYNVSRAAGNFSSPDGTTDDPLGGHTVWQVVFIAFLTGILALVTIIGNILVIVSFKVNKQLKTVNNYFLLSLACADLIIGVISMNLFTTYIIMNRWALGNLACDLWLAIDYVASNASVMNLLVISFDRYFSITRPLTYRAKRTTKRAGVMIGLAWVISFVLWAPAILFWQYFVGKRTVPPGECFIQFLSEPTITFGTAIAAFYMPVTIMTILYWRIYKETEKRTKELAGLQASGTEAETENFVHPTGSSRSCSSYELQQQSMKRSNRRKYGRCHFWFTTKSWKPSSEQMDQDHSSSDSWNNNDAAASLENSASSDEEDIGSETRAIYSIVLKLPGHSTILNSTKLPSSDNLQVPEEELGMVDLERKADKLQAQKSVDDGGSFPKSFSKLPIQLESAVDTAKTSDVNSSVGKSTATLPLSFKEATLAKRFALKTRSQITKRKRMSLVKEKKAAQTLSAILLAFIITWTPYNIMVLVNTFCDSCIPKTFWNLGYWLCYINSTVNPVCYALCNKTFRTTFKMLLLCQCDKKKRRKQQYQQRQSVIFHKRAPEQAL

Some results are limits rather than exact numbers.

For orientation: Emax means the size of the effect at its maximum, as opposed to the concentration needed.

With `CCOC(=O)N1CCC2(CC(N3CCC4(CC3)OC(=O)N(CC)C4CC)C2)C1` (single isomer, unassigned) [4-22 Isomer 3], the “M1 % Emax cf. ACh” value in assay [1] was “(95) %”. The EC50 is 200 nM in assay [1], 31.6 nM in assay [2], above 20000 nM in assay [3] and above 20000 nM in assay [4]. For the same molecule, the “M4 % Emax cf. ACh” value in assay [2] was “(80) %”. For the same molecule, the “M2 % Emax cf. ACh” value in assay [3] (CHO cells stably expressing human M2, Emax relative to ACh) is listed as “(3) %”. Besides, in assay [4] (Emax relative to ACh), the Emax is 1%.

For `CCOC(=O)N1CCC2(CC(N3CCC4(CC3)CC(=O)NC4CC)C2)C1` (single isomer, unassigned) [3-5 Isomer 2], the EC50 was 25.1 nM in assay [1], 3.16 nM in assay [2], above 20000 nM in assay [3] and above 20000 nM in assay [4]. Further, the Emax in assay [1] is 96%; in assay [2] it was 108%; in assay [3] (Emax relative to ACh), 16%; in assay [4] (Emax relative to ACh), 10%.

Turning to `CCOC(=O)N1CC2(CC(N3CCC4(CC3)OC(=O)N(CC)C4CC)C2)C1` (racemic) [2-2 racemic], the EC50 is 2000 nM in assay [1], 200 nM in assay [2], above 20000 nM in assay [3] and above 20000 nM in assay [4]. In addition, the Emax is 74% in assay [1], 69% in assay [2], 71% in assay [3] (Emax relative to ACh) and 27% in assay [4] (Emax relative to ACh).

For `CCOC(=O)N1CC2(CC(N3CCC4(CC3)OC(=O)NC4CC)C2)C1` (single isomer, unassigned) [2-1 Isomer 2], the EC50 in assay [1] is 158 nM; in assay [2] it was 126 nM; in assay [3], above 20000 nM; in assay [4] it was above 20000 nM. Further, the Emax in assay [1] stood at 106%; in assay [2], 108%; in assay [3] (Emax relative to ACh) it was 15%. Further, in assay [4] (CHO cells stably expressing human M3, Emax relative to ACh), the “M3 % Emax cf. ACh” value was “(4) %”.

With `CCOC(=O)N1CCC2(CC(N3CCC4(CC3)OC(=O)N(CC(C)C)C4CC)C2)C1` (single isomer, unassigned) [4-24 Isomer 2 (racemic)], the EC50 was 501 nM in assay [1], 10 nM in assay [2], above 20000 nM in assay [3] and above 20000 nM in assay [4]. The Emax amounted to 84% in assay [1], 84% in assay [2], 53% in assay [3] (Emax relative to ACh) and 2% in assay [4] (Emax relative to ACh).

On to `CCOC(=O)N1CCC2(CC(N3CCC4(CC3)OC(=O)NC4C)C2)C1` (single isomer, unassigned) [4-11 Isomer 2], for which the EC50 was 158 nM in assay [1], 79.4 nM in assay [2], above 20000 nM in assay [3] and above 20000 nM in assay [4]. For the same molecule, the Emax in assay [1] was 114%; in assay [2], 102%; in assay [3] (Emax relative to ACh) it was 7%; in assay [4] (Emax relative to ACh), 7%.

On to `CCOC(=O)N1CC2(CCC(N3CCC4(CC3)OC(=O)N(CC)C4CC)C2)C1` (mixture of isomers) [8-2 mixture of diastereomers], for which the EC50 in assay [1] is 200 nM; in assay [2], 10 nM; in assay [3], above 20000 nM; in assay [4] it was above 20000 nM. Moreover, the Emax came out at 65% in assay [1], 30% in assay [2], 1% in assay [3] (Emax relative to ACh) and 1% in assay [4] (Emax relative to ACh).

Consider `CCCN1C(=O)OC2(CCN(C3CC4(CCN(C(=O)OCC)C4)C3)CC2)C1(C)C` (single isomer, unassigned) [4-37 Isomer 2], for which, in assay [1], the “M1 % Emax cf. ACh” value was “(29) %” and the EC50 was 794 nM. Besides, in assay [2], the “M4 % Emax cf. ACh” value was “(13) %” and the EC50 is above 20000 nM.

Regarding `CCOC(=O)N1CCC2(CC(N3CCC4(CC3)OC(=O)NC4CC)C2)C1` (single isomer, unassigned) [4-12 Isomer 2], in assay [1], the “M1 % Emax cf. ACh” value is listed as “(0) %” and the EC50 was above 20000 nM. Besides, in assay [2], the “M4 % Emax cf. ACh” value is “(1) %” and the EC50 is above 20000 nM.

Take `CCOC(=O)N1CCC2(CC(N3CCC4(CC3)OC(=O)N(CC)C4CC)C2)C1` (single isomer, unassigned) [4-22 Isomer 1]: in assay [1], the “M1 % Emax cf. ACh” value is “(13) %” and the EC50 was above 20000 nM. Besides, in assay [2], the “M4 % Emax cf. ACh” value is listed as “(18) %” and the EC50 was above 20000 nM.
